# Experimental data published in patent US7304084B2, “6-[(4,5-Dihydro-1H-imidazol-2-yl)amino]-7-methyl-1H-benzimidazole-4-carbonitrile and its preferred salt” (The Board of Regents of the University of Nebraska, priority 2003, dated 2007).
# Counter-ions that a name gives are not always drawn. Like-named read-outs stand apart in the source and are kept apart here.
# Legend:
# [1] = Solubility in water at ambient temperature (saturated solution, supernatant by quantitative HPLC); type: physicochemical
# Description: One such technique is to prepare a saturated solution of the salt form by shaking a suspension of the salt form in water, until a saturated solution is obtained. The saturated solution is then centrifuged and the concentration of the supernatant is determined by quantitative HPLC analysis. A suitable HPLC method is described in Example 1.
# [2] = Ames Test dose/response studies; type: cell-based; settings: impurity (2) present in compound (1) and its various salt forms
# Source text: [drawing 10] is produced in pharmaceutically unacceptable levels using these previous methods. Based on dose/response studies using an Ames Test, the mutagenic impurity (2) is shown to elicit a positive response when present at level about 1 ppm (parts per million) in 6-[(4,5-Dihydro-1H-imidazol-2-yl)amino-]-7-methyl-1H-benzimidazole-4-carbonitrile (1) and its various salt forms. Low levels of this phenazine impurity can be detected by those methods well known in the art such as HPLC with fluorescence detection. Suitable examples of such assays are described in Examples 1, 2, and 3 herein. A suitable preparation of labeled ^15N4-2,3,7-Triamino-4,6-dimethyl-1,9-phenazinedicarbonitrile is described in Example 4 herein. A suitable preparation of non-labeled 2,3,7-Triamino-4,6-dimethyl-1,9-phenazinedicarbonitrile is described in Example 19 herein. III. Methods of Making Intermediate of Formula (II)
smiles,measurement,setting,value
"Cc1c(N=C2NCCN2)cc(C#N)c2[nH]cnc12 [Free Base Form, 6-[(4,5-Dihydro-1H-imidazol-2-yl)amino-]-7-methyl-1H-benzimidazole-4-carbonitrile]",solubility,"[1]; water, thermodynamic from solid",~400 µg/mL
"Cc1c(N)cc(C#N)c2nc3c(C#N)c(N)c(N)c(C)c3nc12 [compound 2, 2,3,7-triamino-4,6-dimethyl-1,9-phenazinedicarbonitrile]",level of the impurity at which a positive response is elicited in the Ames Test,[2],about 1 ppm
"Cc1c(NC2=NCCN2)cc(C#N)c2nc[nH]c12 [Sulfate Salt Form, 6-[(4,5-Dihydro-1H-imidazol-2-yl)amino-]-7-methyl-1H-benzimidazole-4-carbonitrile, reference compound]",solubility in water,"[1]; water, ambient temperature",about 4 mg/mL
"CC(=O)O.Cc1c(NC2=NCCN2)cc(C#N)c2nc[nH]c12 [Acetate Salt Form, 6-[(4,5-Dihydro-1H-imidazol-2-yl)amino-]-7-methyl-1H-benzimidazole-4-carbonitrile, Acetic Acid Salt (1:1)]",solubility in water,[1],about 135 mg/mL
